Measured values taken from ChEMBL document CHEMBL1201862, “PubChem BioAssay data set” (2004).
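Step 1: Grow cells in 96-well plates. Step 2: Expose to compound for 48 hours at 5 concentrations. Step 3: Interpolate endpoints linearly; if unreached, use highest concentration. GI50 is the concentration that inhibits growth by half.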 The source made the active and inactive calls. Rule as the data show it: active = GI50 up to about 1.1 µM and inactive = higher.

Experiments:
Assay in all cases: DTP human tumour cell line panel, 48 h
786-0 = test system: 786-0
A498 = test system: A498
A549 = test system: A549
ACHN = test system: ACHN
CAKI-1 = test system: CAKI-1
CCRF-CEM = test system: CCRF-CEM
COLO 205 = test system: COLO 205
DLD-1 = test system: DLD-1
DMS-114 = test system: DMS-114
DMS-273 = test system: DMS-273
EKVX = test system: EKVX
HCC 2998 = test system: HCC 2998
HCT-116 = test system: HCT-116
HCT-15 = test system: HCT-15
HL-60 = test system: HL-60
HOP-18 = test system: HOP-18
HOP-62 = test system: HOP-62
HOP-92 = test system: HOP-92
HT-29 = test system: HT-29
IGROV-1 = test system: IGROV-1
K562 = test system: K562
KM-20L2 = test system: KM-20L2
KM12 = test system: KM12
LOX IMVI = test system: LOX IMVI
LXFL 529 = test system: LXFL 529
M14 = test system: M14
M19-MEL = test system: M19-MEL
MOLT-4 = test system: MOLT-4
Malme-3M = test system: Malme-3M
NCI-H226 = test system: NCI-H226
NCI-H23 = test system: NCI-H23
NCI-H460 = test system: NCI-H460
NCI-H522 = test system: NCI-H522
OVCAR-3 = test system: OVCAR-3
OVCAR-4 = test system: OVCAR-4
OVCAR-5 = test system: OVCAR-5
OVCAR-8 = test system: OVCAR-8
RXF 393 = test system: RXF 393
RXF 631 = test system: RXF 631
SF-268 = test system: SF-268
SF-295 = test system: SF-295
SF-539 = test system: SF-539
SK-MEL-28 = test system: SK-MEL-28
SK-MEL-2 = test system: SK-MEL-2
SK-MEL-5 = test system: SK-MEL-5
SK-OV-3 = test system: SK-OV-3
SN12C = test system: SN12C
SNB-19 = test system: SNB-19
SNB-75 = test system: SNB-75
SNB-78 = test system: SNB-78
SR = test system: SR
SW-620 = test system: SW-620
TK-10 = test system: TK-10
U-251 = test system: U-251
UACC-257 = test system: UACC-257
UACC-62 = test system: UACC-62
UO-31 = test system: UO-31
XF498 = test system: XF498

`CC1NOC(=O)C1/N=N/c1ccc(Cl)cc1Cl` (stereo unspecified) was tested, and the GI50 (786-0) was 18.7 µM (inactive), the GI50 (A498) was 35.3 µM (inactive) and the GI50 (A549) was 23 µM (inactive). For the same compound, the GI50 (ACHN) was 21.4 µM (inactive), the GI50 (CAKI-1) was 24.4 µM (inactive) and the GI50 (CCRF-CEM) was 30.9 µM (inactive). The GI50 (COLO 205) was 20 µM (inactive), the GI50 (DLD-1) was 33.9 µM (inactive) and the GI50 (DMS-114) was 24.2 µM (inactive). The GI50 (DMS-273) was 20.9 µM (inactive), the GI50 (EKVX) was 24.6 µM (inactive) and the GI50 (HCC 2998) was 29.9 µM (inactive). The GI50 (HCT-116) was 21.9 µM (inactive), the GI50 (HCT-15) was 18.5 µM and the GI50 (HL-60) was 16 µM (inactive). For the same compound, the GI50 (HOP-18) was 18.5 µM (inactive), the GI50 (HOP-62) was 43 µM (inactive) and the GI50 (HOP-92) was 19.8 µM (inactive). For the same compound, the GI50 (HT-29) was 32.8 µM (inactive), the GI50 (IGROV-1) was 26.9 µM (inactive) and the GI50 (K562) was 25.2 µM (inactive). For the same compound, the GI50 (KM-20L2) was 30.6 µM (inactive), the GI50 (KM12) was 15.1 µM (inactive) and the GI50 (LOX IMVI) was 27.2 µM (inactive). For the same compound, the GI50 (LXFL 529) was 21.9 µM (inactive), the GI50 (M14) was 21 µM (inactive) and the GI50 (M19-MEL) was 27.2 µM (inactive). For the same compound, the GI50 (MOLT-4) was 19.6 µM (inactive), the GI50 (Malme-3M) was 25.5 µM (inactive) and the GI50 (NCI-H226) was 25.4 µM (inactive). For the same compound, the GI50 (NCI-H23) was 20.8 µM (inactive), the GI50 (NCI-H460) was 24.7 µM (inactive) and the GI50 (NCI-H522) was 17.8 µM (inactive). The GI50 (OVCAR-3) was 16.4 µM (inactive), the GI50 (OVCAR-4) was 21.6 µM (inactive) and the GI50 (OVCAR-5) was 69.7 µM (inactive). For the same compound, the GI50 (OVCAR-8) was 31.6 µM (inactive), the GI50 (RXF 393) was 20.7 µM (inactive) and the GI50 (RXF 631) was 38.2 µM (inactive). The GI50 (SF-268) was 32.2 µM (inactive), the GI50 (SF-295) was 28.8 µM (inactive) and the GI50 (SF-539) was 47.4 µM (inactive). The GI50 (SK-MEL-28) was 38.9 µM (inactive), the GI50 (SK-MEL-2) was 23.8 µM (inactive) and the GI50 (SK-MEL-5) was 25.8 µM (inactive). The GI50 (SK-OV-3) was 29.3 µM (inactive), the GI50 (SN12C) was 21.6 µM (inactive) and the GI50 (SNB-19) was 22.6 µM (inactive). For the same compound, the GI50 (SNB-75) was 20.9 µM (inactive), the GI50 (SNB-78) was 26.3 µM (inactive) and the GI50 (SR) was 18.7 µM (inactive). The GI50 (SW-620) was 7.98 µM (inactive), the GI50 (TK-10) was 23.8 µM (inactive) and the GI50 (U-251) was 18.5 µM (inactive). The GI50 (UACC-257) was 24.5 µM (inactive), the GI50 (UACC-62) was 30.7 µM (inactive) and the GI50 (UO-31) was 24.4 µM (inactive). For the same compound, the GI50 (XF498) was 23.1 µM (inactive).

`COc1ccc(C2=Nc3ccccc3N=C(SC)C2)cc1` was tested, and the GI50 (786-0) was 38.6 µM (inactive), the GI50 (A498) was > 100 µM (inactive) and the GI50 (A549) was 95.1 µM (inactive). For the same compound, the GI50 (ACHN) was 69.8 µM (inactive), the GI50 (CAKI-1) was 46.8 µM (inactive) and the GI50 (CCRF-CEM) was 13.2 µM (inactive). The GI50 (COLO 205) was 51.3 µM (inactive), the GI50 (DLD-1) was 42.8 µM (inactive) and the GI50 (DMS-114) was 44.1 µM (inactive). The GI50 (DMS-273) was 73.6 µM (inactive), the GI50 (EKVX) was 41 µM (inactive) and the GI50 (HCC 2998) was 28.7 µM (inactive). For the same compound, the GI50 (HCT-116) was 50.4 µM (inactive), the GI50 (HCT-15) was 33.7 µM and the GI50 (HL-60) was 16.3 µM (inactive). For the same compound, the GI50 (HOP-18) was > 100 µM (inactive), the GI50 (HOP-62) was > 100 µM (inactive) and the GI50 (HOP-92) was 15.6 µM (inactive). For the same compound, the GI50 (HT-29) was 38.5 µM (inactive), the GI50 (IGROV-1) was > 100 µM (inactive) and the GI50 (K562) was 20.8 µM (inactive). The GI50 (KM-20L2) was 41.3 µM (inactive), the GI50 (KM12) was 27.5 µM (inactive) and the GI50 (LOX IMVI) was 16.9 µM (inactive). The GI50 (LXFL 529) was 46.1 µM (inactive), the GI50 (M14) was 59.7 µM (inactive) and the GI50 (M19-MEL) was 39.8 µM (inactive). For the same compound, the GI50 (MOLT-4) was 25.5 µM (inactive), the GI50 (Malme-3M) was > 100 µM (inactive) and the GI50 (NCI-H226) was > 100 µM (inactive). The GI50 (NCI-H23) was 32.8 µM (inactive), the GI50 (NCI-H460) was 24.5 µM (inactive) and the GI50 (NCI-H522) was 22.9 µM (inactive). The GI50 (OVCAR-3) was 54.1 µM (inactive), the GI50 (OVCAR-4) was 48.5 µM (inactive) and the GI50 (OVCAR-5) was 44 µM (inactive). For the same compound, the GI50 (OVCAR-8) was 59.3 µM (inactive), the GI50 (RXF 393) was 62.5 µM (inactive) and the GI50 (RXF 631) was 47 µM (inactive). The GI50 (SF-268) was > 100 µM (inactive), the GI50 (SF-295) was 77.3 µM (inactive) and the GI50 (SF-539) was > 100 µM (inactive). For the same compound, the GI50 (SK-MEL-28) was > 100 µM (inactive), the GI50 (SK-MEL-2) was 21.8 µM (inactive) and the GI50 (SK-MEL-5) was 39.8 µM (inactive). For the same compound, the GI50 (SK-OV-3) was > 100 µM (inactive), the GI50 (SN12C) was 66.7 µM (inactive) and the GI50 (SNB-19) was > 100 µM (inactive). For the same compound, the GI50 (SNB-75) was 74 µM (inactive), the GI50 (SNB-78) was > 100 µM (inactive) and the GI50 (SR) was 25.3 µM (inactive). The GI50 (SW-620) was 16.9 µM (inactive), the GI50 (TK-10) was 40.7 µM (inactive) and the GI50 (U-251) was 32.2 µM (inactive). For the same compound, the GI50 (UACC-257) was 22.1 µM (inactive), the GI50 (UACC-62) was > 100 µM (inactive) and the GI50 (UO-31) was 47.3 µM (inactive). For the same compound, the GI50 (XF498) was 37.8 µM (inactive).
